Experimental data reported in patent US5462926A (Biomeasure, Inc., priority 1993, dated 1995).
Like-named read-outs stand apart in the source and are kept apart here. Where a SMILES comes first, the peptide text is derived from it. Bridges are numbered along the chain shown (N, C = ends). [ ]: non-standard residue; d: D form. 2Nal = N[C@@H](Cc1ccc2ccccc2c1)C(=O)O; d2Nal = N[C@H](Cc1ccc2ccccc2c1)C(=O)O; Lys(Et2) = CCN(CC)CCCC[C@H](N)C(=O)O; Lys(iPr) = CC(C)NCCCC[C@H](N)C(=O)O

What was measured:
GRP receptor = GRP receptor (Rattus norvegicus, UniProt P52500); test: Amylase release from rat pancreatic acini (alone or Bn-stimulated); type: cell-based; design: from tissue; host or cells: dispersed pancreatic acini; conditions: for Amylase Release, analog Alone (10 μM): analog 10 μM alone, control 4 ± 1; for Amylase Release, analog Plus Bn (0.3 nM): analog 10 μM plus Bn 0.3 nM, Bn without analog 15 ± 1; for IC50: read-out: IC50 Amylase Release, GRP Receptor, Rat Pancreatic Acini
Sequence of GRP receptor (P52500 whole entry): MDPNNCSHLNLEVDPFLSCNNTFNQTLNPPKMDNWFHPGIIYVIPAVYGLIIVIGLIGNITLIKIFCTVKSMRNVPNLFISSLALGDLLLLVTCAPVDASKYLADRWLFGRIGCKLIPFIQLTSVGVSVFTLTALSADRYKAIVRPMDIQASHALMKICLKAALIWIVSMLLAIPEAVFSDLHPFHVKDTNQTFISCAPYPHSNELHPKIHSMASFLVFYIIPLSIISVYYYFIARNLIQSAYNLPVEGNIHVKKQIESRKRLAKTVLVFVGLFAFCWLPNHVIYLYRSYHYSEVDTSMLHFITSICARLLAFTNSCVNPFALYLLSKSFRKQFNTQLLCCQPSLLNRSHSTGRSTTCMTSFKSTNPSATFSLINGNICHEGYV
Procedure: pancreatic acini or [^3 H]myo[2H]inositolloaded NMBR transfected cell
were incubated either with no additives, the somatostatin octapeptide
analog, Bn, or NMB, or a combination for 30 min at 37° C.. Amylase
release from pancreatic acini was expressed at the indicated percent of
the total cellular amylase released during the incubation. [^3 H]IP i
expressed in dpm's. To test for inhibitory effects, the effect of
somatostatin analog (10 μM) was determined on 0.3 nM Bnstimulated

NMB receptor = target: T1, NMB receptor (Rattus norvegicus, UniProt P24053); test: [3H]inositol phosphates in NMB-R transfected cells (alone or NMB-stimulated); type: cell-based; design: a full length NMB-preferring bombesin receptor clone generated from rat esophagus; expressed in transfected cells; conditions: NMB-R transfected cells; for [3H]IP, analog Alone (10 μM): analog 10 μM alone, control 13 ± 3; for [3H]IP, analog Plus NMB (3 nM): analog 10 μM plus NMB 3 nM, NMB without analog 186 ± 58; for effect at 10 μM on NMB-stimulated increase in [3H]IP / IC50: 3 nM NMB
T1 sequence (P24053 1-390): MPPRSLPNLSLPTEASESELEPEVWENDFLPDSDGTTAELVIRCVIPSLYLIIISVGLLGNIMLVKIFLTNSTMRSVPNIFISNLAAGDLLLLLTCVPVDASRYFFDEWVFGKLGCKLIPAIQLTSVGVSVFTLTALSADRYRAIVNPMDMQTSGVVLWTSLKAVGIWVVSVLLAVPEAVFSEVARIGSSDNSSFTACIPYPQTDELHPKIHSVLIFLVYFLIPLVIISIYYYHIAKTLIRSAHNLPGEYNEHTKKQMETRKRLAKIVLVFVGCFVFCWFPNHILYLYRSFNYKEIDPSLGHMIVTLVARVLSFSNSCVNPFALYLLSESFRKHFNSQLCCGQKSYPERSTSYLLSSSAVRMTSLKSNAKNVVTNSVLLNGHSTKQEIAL
Procedure: As described previously [Wada, E., et al. Neuron 6:421 (1991)], BALB 3T3 cells expressing a stably transfected rat NMB receptor (NMB-R transfected cells) were obtained using calcium phosphate precipitation of a full length NMB-preferring bombesin receptor clone generated from rat esophagus and subcloned into a modified version of the pCD2 plasmid. Cells were passaged every 3-4 days at confluence, using 0.1% trypsin in 1 mM EDTA. Rat glioblastoma C-6 tumor cells were maintained similarly and were passaged weekly at confluence. Both cell lines were cultured at 37° C. in a 5% CO2 atmosphere. Rat AR 42J pancreatic acinar cells were cultured in Dulbecco's modified Eagle's medium (DMEM) without antibiotics and supplemented with 10% (vol/vol) fetal calf serum. The incubation atmosphere consisted of 10% CO2 -90% humidified air at 37° C.
Measurement of phosphoinositides
Total phosphoinositides in C-6 cells and in NMB-R transfected cells were determined as described previously, with minor modifications [Benya, R. V. et al. Mol. Pharmacol. 42:1058 (1992); and Wang, L-H. et al. Biochem. Jo 286:641 (1992)]. Cells were grown to confluence in 24-well plates and then loaded with 100 μCi/ml myo-[2-^3 H]inositol in Dulbecco's modified essential medium with 2% fetal bovine serum at 37° C. for 48 hrs. Cells were washed and incubated in phosphoinositide buffer (standard buffer additionally containing 10 mM LiCl, 20 mM HEPES, 2 mM CaCl2, 2% BSA, and 1.2 mM MgSO4) for 15 min and then for 60 min at 37° C. with agonists at various concentrations or with 3 nM NMB (a half-maximal effective concentration) and possible antagonists at different concentrations. Reactions were halted using ice-cold 1% HCl in methanol, and the inositol phosphates (IP) were isolated as described previously [Bologna, M. et al. Cancer 63:1714 (1989); and Endo, T. et al. J. Endocrinolo 131:313 (1991)]. Briefly, after loading of the anion exchange column, free [^3 H]glycerophosphorylinositol was removed by washing with 5 mM disodium tetraborate in 60 mM sodium formate. Total [^3 H]inositol phosphates were then eluted using 100 mM formic acid in 1.0M ammonium formate as described previously [Benya, R. V. et al. Mol. Pharmacol. 42:1058 (1992); and Wang, L-H. et al. Biochem. J. 286:641 (1992 )].

rat NMB receptor = target: T2, rat NMB receptor (Rattus norvegicus, UniProt P24053); test: Binding of 125I-[D-Tyr0]NMB to NMB-R transfected BALB 3T3 cells; conditions: for fold decrease in NMB receptor affinity compared with cyclo SS-octa (#1): structure-function comparison from Table 1
T2 construct: a full length NMB-preferring bombesin receptor clone generated from rat esophagus; expressed in transfected cells
T2 sequence (P24053 1-390): T1 sequence (P24053 1-390)
Procedure: Cells were passaged every 3-4 days at confluence, using 0.1% trypsin in 1 mM EDTA. Rat glioblastoma C-6 tumor cells were maintained similarly and were passaged weekly at confluence. Both cell lines were cultured at 37° C. in a 5% CO2 atmosphere. Rat AR 42J pancreatic acinar cells were cultured in Dulbecco's modified Eagle's medium (DMEM) without antibiotics and supplemented with 10% (vol/vol) fetal calf serum. The incubation atmosphere consisted of 10% CO2 -90% humidified air at 37° C.

[1] = target: T3, GRP receptors on rat pancreatic acini (Rattus norvegicus, UniProt P52500); test: Binding of 125I-[Tyr4]bombesin to pancreatic acini; conditions: read-out: Ki 125I-[Tyr4]Bn Binding, GRP Receptor, Rat Pancreatic Acini; Ki by Cheng method
T3 construct: from tissue; host or cells: dispersed pancreatic acini
T3 sequence (P52500 whole entry): as the sequence (P52500 whole entry) above
Excerpt: Nonsaturable binding was<10% of total binding in all experiments.

[2] = target: T4, NMB receptors on C-6 cells (Rattus norvegicus, UniProt P24053); test: Binding of 125I-[D-Tyr0]NMB to C-6 glioblastoma cells; conditions: Ki by Cheng method, read-out: Ki 125I-NMB Binding, NMB Receptor, C-6 Cells
T4 construct: endogenous in cells; host or cells: rat glioblastoma C-6 cells
T4 sequence (P24053 1-390): T1 sequence (P24053 1-390)
Procedure: Binding of ^125 I-[D-Tyr^0 ]NMB to C-6 glioblastoma and NMB-R transfected cells
Binding studies using rat glioblastoma C-6 or NMB-R transfected cells were performed as described previously [Benya, R. V. et al. Mol. Pharmacol. 42:1058 (1992); and Wang, L-H. et al. Biochem. J. 286:641 (1992)] by suspending disaggregated cells in binding buffer, which was composed of standing buffer ([…], 7.7 mM KCl, 1.0 mM EGTA, 0.02% soybean trypsin inhibitor) additionally containing 50 mM HEPES, 1 mM MgCl2, 1.5 mM CaCl2, 2.2 mM KH2 PO4, 0,015% glutamine, and 0.2% BSA (w/v) (pH 7.4). Incubations contained 75 pM ^125 I-[D-Tyr^0 ]NMB and 15×10^6 C-6 cells/ml or 2×10^6 NMB-R transfected cells/ml, for 60 min at 22° C. Nonsaturable binding of ^125 I-[D-Tyr^0 ]NMB was the amount of radioactivity associated with C-6 cells or NMB-R transfected cells when the incubation mixture contained […] NMB. Nonsaturable binding was<15% of total binding in all experiments; all values are reported herein as saturable binding (i.e., total minus nonsaturable binding).

[3] = read-out: IC50 NMB-stimulated [3H]IP, NMB Receptor, Transfected Cells
[4] = NMB-R transfected BALB 3T3 cells, Ki by Cheng method, read-out: Ki 125I-NMB Binding, NMB Receptor, Transfected Cells
[5] = NMB-R transfected cells, value or range given for a group, read-out: K1, 125I-NMB binding to NMB-R transfected cells (text)
[6] = read-out: IC50 NMB-stimulated [3H]IP, Transfected Cells (values in μM)

Structure (SMILES)	Amylase Release, analog Alone (10 μM) (GRP receptor) [% total]	Amylase Release, analog Plus Bn (0.3 nM) (GRP receptor) [% total]	[3H]IP, analog Alone (10 μM) (NMB receptor) [dym × 10^3]	[3H]IP, analog Plus NMB (3 nM) (NMB receptor) [dym × 10^3]	fold by which cyclo SS-octa is more potent than the analog, 125I-NMB binding (rat NMB receptor; NMB-R transfected cells) [fold]	Ki [1] [µM]	Ki [2] [µM]	IC50 (GRP receptor) [µM]	IC50 (NMB receptor; [3]) [µM]	Ki (rat NMB receptor; [4]) [µM]	Ki (rat NMB receptor; [5]) [µM]	IC50 (NMB receptor; [6]) [µM]	fold decrease in NMB receptor affinity compared with cyclo SS-octa (#1) (rat NMB receptor) [fold]	effect at 10 μM on NMB-stimulated increase in [3H]IP (NMB receptor)
NCCCC[C@@H]1NC(=O)[C@@H](Cc2c[nH]c3ccccc23)NC(=O)[C@H](Cc2ccc(O)cc2)NC(=O)[C@@H](NC(=O)[C@H](N)Cc2ccc3ccccc3c2)CSSC[C@@H](C(=O)N[C@@H](Cc2ccc3ccccc3c2)C(N)=O)NC(=O)[C@H](Cc2ccc3ccccc3c2)NC1=O [Analog #3, H2 -D-Nal-Cys-Tyr-D-Trp-Lys-Nal-Cys-Nal-NH2] (H-[d2Nal]CY[dW]K[2Nal]C[2Nal]-NH2; disulfide 2-7)	3 ± 1	15 ± 1	11 ± 1	65 ± 15	–	–	–	–	–	–	–	–	2 to 3	–
CC(C)[C@@H]1NC(=O)[C@H](CCCCN)NC(=O)[C@@H](Cc2c[nH]c3ccccc23)NC(=O)[C@H](Cc2ccc(O)cc2)NC(=O)[C@@H](NC(=O)[C@H](N)Cc2ccc3ccccc3c2)CSSC[C@@H](C(=O)N[C@H](C(N)=O)[C@@H](C)O)NC1=O [Analog #5]	3 ± 1	12 ± 1	11 ± 2	179 ± 13	69	–	–	–	–	–	–	–	80	no effect
CC(C)[C@@H]1NC(=O)[C@H](CCCCN)NC(=O)[C@@H](Cc2c[nH]c3ccccc23)NC(=O)[C@H](Cc2ccc3ccccc3c2)NC(=O)[C@@H](NC(=O)[C@H](N)Cc2ccccc2)CSSC[C@@H](C(=O)N[C@H](C(N)=O)[C@@H](C)O)NC1=O [Analog #18] (H-[dF]C[2Nal][dW]KVCT-NH2; disulfide 2-7)	–	–	11 ± 1	143 ± 11	–	–	8.32 ± 0.957	–	–	–	14 to 19	> 10	–	no effect

Now from value to compound, other results behind:

Amylase Release, analog Alone (10 μM) (GRP receptor) [% total]	Amylase Release, analog Plus Bn (0.3 nM) (GRP receptor) [% total]	[3H]IP, analog Alone (10 μM) (NMB receptor) [dym × 10^3]	[3H]IP, analog Plus NMB (3 nM) (NMB receptor) [dym × 10^3]	fold by which cyclo SS-octa is more potent than the analog, 125I-NMB binding (rat NMB receptor; NMB-R transfected cells) [fold]	Ki [1] [µM]	Ki [2] [µM]	IC50 (GRP receptor) [µM]	IC50 (NMB receptor; [3]) [µM]	Ki (rat NMB receptor; [4]) [µM]	Ki (rat NMB receptor; [5]) [µM]	IC50 (NMB receptor; [6]) [µM]	Structure (SMILES)	fold decrease in NMB receptor affinity compared with cyclo SS-octa (#1) (rat NMB receptor) [fold]	effect at 10 μM on NMB-stimulated increase in [3H]IP (NMB receptor)
3 ± 1	14 ± 2	11 ± 2	188 ± 30	69	> 10	8.29 ± 2.43	> 10	> 10	16.4 ± 4.46	14 to 19	–	C[C@@H](O)[C@H](NC(=O)[C@@H]1CSSC[C@H](NC(=O)[C@H](N)Cc2ccc3ccccc3c2)C(=O)N[C@@H](Cc2ccc(O)cc2)C(=O)N[C@H](Cc2c[nH]c3ccccc23)C(=O)N[C@@H](CCCCN)C(=O)N[C@@H]([C@@H](C)O)C(=O)N1)C(N)=O [Analog #6]	–	no effect
4 ± 2	13 ± 2	11 ± 1	67 ± 7	9	38.1 ± 21.5	1.14 ± 0.105	> 10	9.9 ± 2.31	2.33 ± 0.397	1.4 to 2.3	7.2 to 9.8	CC(C)NCCCC[C@@H]1NC(=O)[C@@H](Cc2c[nH]c3ccccc23)NC(=O)[C@H](Cc2ccc(O)cc2)NC(=O)[C@@H](NC(=O)[C@H](N)Cc2ccccc2)CSSC[C@@H](C(=O)N[C@@H](Cc2ccc3ccccc3c2)C(N)=O)NC(=O)[C@H]([C@@H](C)O)NC1=O [Analog #15, H2 -D-phe-Cys-Tyr-D-Trp-Lys(ipr)-Thr-Cys-Nal-NH2] (H-[dF]CY[dW][Lys(iPr)]TC[2Nal]-NH2; disulfide 2-7)	–	–
5 ± 1	12 ± 1	11 ± 2	73 ± 15	18	> 10	1.09 ± 0.038	> 10	7.21 ± 2.79	3.95 ± 0.509	3.9 to 4.4	7.2 to 9.8	CCN(CC)CCCC[C@@H]1NC(=O)[C@@H](Cc2c[nH]c3ccccc23)NC(=O)[C@H](Cc2ccc(O)cc2)NC(=O)[C@@H](NC(=O)[C@H](N)Cc2ccccc2)CSSC[C@@H](C(=O)N[C@@H](Cc2ccc3ccccc3c2)C(N)=O)NC(=O)[C@H]([C@@H](C)O)NC1=O [Analog #16, H2 -D-Phe-Cys-Tyr-D-TrP-Lys(diEt)-Thr-Cys-Nal-NH2] (H-[dF]CY[dW][Lys(Et2)]TC[2Nal]-NH2; disulfide 2-7)	–	–
